In patent US10526327B2, “Histone demethylase inhibitors” (CELGENE QUANTICEL RESEARCH, INC., priority 2013, dated 2020):

target: T1, Jarid1A (Homo sapiens, UniProt P29375); assay: Jarid1A in vitro enzyme inhibition assay (TR-FRET); assay type: biochemical
T1 construct: purchased BPS Bioscience 50110
T1 sequence (P29375 1-1090): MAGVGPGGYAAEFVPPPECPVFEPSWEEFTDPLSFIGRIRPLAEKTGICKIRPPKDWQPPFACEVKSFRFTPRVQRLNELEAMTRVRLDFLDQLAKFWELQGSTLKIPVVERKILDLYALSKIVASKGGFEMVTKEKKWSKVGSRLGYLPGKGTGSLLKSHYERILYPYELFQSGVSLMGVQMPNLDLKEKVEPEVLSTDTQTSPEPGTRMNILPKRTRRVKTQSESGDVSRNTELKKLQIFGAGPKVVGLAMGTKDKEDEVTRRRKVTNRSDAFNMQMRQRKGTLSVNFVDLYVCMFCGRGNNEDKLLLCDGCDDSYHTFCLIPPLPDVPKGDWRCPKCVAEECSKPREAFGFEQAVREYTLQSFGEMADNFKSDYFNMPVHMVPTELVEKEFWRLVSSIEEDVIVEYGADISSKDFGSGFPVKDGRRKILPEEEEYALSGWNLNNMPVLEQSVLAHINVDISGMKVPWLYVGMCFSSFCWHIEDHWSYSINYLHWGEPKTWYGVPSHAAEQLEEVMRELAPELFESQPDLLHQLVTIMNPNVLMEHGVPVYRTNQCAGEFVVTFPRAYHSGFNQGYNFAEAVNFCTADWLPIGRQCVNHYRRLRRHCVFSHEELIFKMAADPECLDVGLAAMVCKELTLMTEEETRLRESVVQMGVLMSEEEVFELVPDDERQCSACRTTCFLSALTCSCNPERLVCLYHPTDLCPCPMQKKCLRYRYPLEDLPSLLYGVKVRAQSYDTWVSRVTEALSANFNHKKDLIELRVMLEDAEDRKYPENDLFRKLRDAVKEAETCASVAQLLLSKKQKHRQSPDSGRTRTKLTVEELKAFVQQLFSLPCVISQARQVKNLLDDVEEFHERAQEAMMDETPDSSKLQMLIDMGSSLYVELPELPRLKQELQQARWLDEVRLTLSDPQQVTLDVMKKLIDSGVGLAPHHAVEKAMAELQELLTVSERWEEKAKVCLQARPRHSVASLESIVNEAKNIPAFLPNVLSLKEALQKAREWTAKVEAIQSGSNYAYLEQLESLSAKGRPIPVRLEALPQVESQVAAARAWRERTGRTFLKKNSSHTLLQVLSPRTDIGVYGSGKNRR
Outline: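 Demethylation of 300 nM biotin-H3K4me3 peptide by 1 nM baculovirus-expressed Jarid1A (aa 1–1090) with 2 μM α-ketoglutarate, Fe(II) and ascorbate, pH 7.3, 30 min at room temperature. Stopped with EDTA; H3K4me1-2 product detected by TR-FRET (Eu anti-H3K4me1-2/streptavidin-APC). IC50 fitted from 665/615 ratio over 11-point dilutions.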

Row | IC50 [µM] | Structure (SMILES)
1 | ≤ 0.1 | Oc1nc(Oc2cnn(C3CCCN(c4ccc(F)cc4)C3)c2)nc2cnccc12 (stereo in doubt) [Example 169, 2-({1-[(3R)-1-(4-fluorophenyl)piperidin-3-yl]-1H-pyrazol-4-yl}oxy)pyrido[3,4-d]pyrimidin-4-ol]
2 | 0.1 to 1 | CC(C)COc1nc(O)c2ccncc2n1 [Example 14, 2-(2-methylpropoxy)pyrido[3,4-d]pyrimidin-4-ol]
3 | 0.1 to 1 | CC(COc1nc(O)c2ccncc2n1)c1ccccc1 (stereo not drawn) [Example 17, 2-(2-phenylpropoxy)pyrido[3,4-d]pyrimidin-4-ol]
4 | 1 to 10 | CC(Cc1ccccc1)Oc1nc(O)c2ccncc2n1 (stereo not drawn) [Example 19, 2-(1-phenylpropan-2-yloxy)pyrido[3,4-d]pyrimidin-4-ol]
5 | 0.1 to 1 | CN(C)CCCOc1nc(O)c2ccncc2n1 [Example 21, 2-[3-(dimethylamino)propoxy]pyrido[3,4-d]pyrimidin-4-ol]
6 | 0.1 to 1 | COCCOc1nc(O)c2ccncc2n1 [Example 22, 2-(2-methoxyethoxy)pyrido[3,4-d]pyrimidin-4-ol]
7 | 0.1 to 1 | Cn1cnc(-c2nccc3c(O)nc(OCc4ccccc4C(F)(F)F)nc23)c1 [Example 107, 8-(1-methyl-1H-imidazol-4-yl)-2-{[2-(trifluoromethyl)phenyl]methoxy}pyrido[3,4-d]pyrimidin-4-ol]
8 | 1 to 10 | Cn1cnc(-c2nccc3c(O)nc(O[C@H](c4ccccc4)C(F)(F)F)nc23)c1 [Example 108, 8-(1-methyl-1H-imidazol-4-yl)-2-[(1R)-2,2,2-trifluoro-1-phenylethoxy]pyrido[3,4-d]pyrimidin-4-ol]
9 | 1 to 10 | Cn1cnc(-c2nccc3c(O)nc(O[C@@H](c4ccccc4)C(F)(F)F)nc23)c1 [Example 109, 8-(1-methyl-1H-imidazol-4-yl)-2-[(1S)-2,2,2-trifluoro-1-phenylethoxy]pyrido[3,4-d]pyrimidin-4-ol]
10 | 0.1 to 1 | CCC(Oc1nc(O)c2ccnc(-c3cn(C)cn3)c2n1)C(F)(F)F (stereo not drawn) [Example 110, 8-(1-methyl-1H-imidazol-4-yl)-2-[(1,1,1-trifluorobutan-2-yl)oxy]pyrido[3,4-d]pyrimidin-4-ol]
11 | ≤ 0.1 | Cn1cnc(-c2nccc3c(O)nc(OCc4ccc(C(F)(F)F)cc4)nc23)c1 [Example 111, 8-(1-methyl-1H-imidazol-4-yl)-2-{[4-(trifluoromethyl)phenyl]methoxy}pyrido[3,4-d]pyrimidin-4-ol]
12 | 0.1 to 1 | Cn1cnc(-c2nccc3c(O)nc(OCc4ccc(Cl)cc4)nc23)c1 [Example 112, 2-[(4-chlorophenyl)methoxy]-8-(1-methyl-1H-imidazol-4-yl)pyrido[3,4-d]pyrimidin-4-ol]
13 | 0.1 to 1 | Oc1nc(Oc2ccc(Cl)c(Cl)c2)nc2cnccc12 [Example 114, 2-(3,4-dichlorophenoxy)pyrido[3,4-d]pyrimidin-4-ol]
14 | ≤ 0.1 | Oc1nc(Oc2cnn(C(c3ccccc3)C3CC3)c2)nc2cnccc12 (stereo not drawn) [Example 116, 2-({1-[cyclopropyl(phenyl)methyl]-1H-pyrazol-4-yl}oxy)pyrido[3,4-d]pyrimidin-4-ol]
15 | ≤ 0.1 | Oc1nc(Oc2cnn(C3CCN(Cc4ccccc4)CC3)c2)nc2cnccc12 [Example 123, 2-{[1-(1-benzylpiperidin-4-yl)-1H-pyrazol-4-yl]oxy}pyrido[3,4-d]pyrimidin-4-ol]
16 | ≤ 0.1 | O=C(C1CCNCC1)N1CC[C@H](n2cc(Oc3nc(O)c4ccncc4n3)cn2)C1 [Example 143, 2-({1-[(3S)-1-(piperidine-4-carbonyl)pyrrolidin-3-yl]-1H-pyrazol-4-yl}oxy)pyrido[3,4-d]pyrimidin-4-ol]
17 | ≤ 0.1 | CNCC(=O)N1CC[C@H](n2cc(Oc3nc(O)c4ccncc4n3)cn2)C1 [Example 144, 1-[(3S)-3-[4-({4-hydroxypyrido[3,4-d]pyrimidin-2-yl}oxy)-1H-pyrazol-1-yl]pyrrolidin-1-yl]-2-(methylamino)ethan-1-one]

Row | Structure (SMILES) | IC50 [µM]
18 | CCC(C)COc1nc(O)c2ccncc2n1 (stereo not drawn) [Example 16, 2-(2-methylbutoxy)pyrido[3,4-d]pyrimidin-4-ol] | 0.1 to 1
